Assay results published in US9469650B2, “Melampomagnolide B derivatives” (BOARD OF TRUSTEES OF THE UNIVERSITY OF ARKANSAS, priority 2013, dated 2016).

Columns and labels:
[1] = test system: K-562; assay: panel of 60 human tumor cell lines, growth inhibition (Leukemia); conditions: for GI50 / CC50: Homo sapiens; for GI50: K562; for CC50: K562, read-out: LC50; for Percent Growth / TGI: K-562; for TGI: NCI five dose
[2] = test system: UACC-257; assay: panel of 60 human tumor cell lines, growth inhibition (Melanoma); conditions: for GI50 / CC50: Homo sapiens; for GI50 / Percent Growth / TGI: UACC-257; for CC50: UACC-257, read-out: LC50; for TGI: NCI five dose
[3] = test system: SF-268; assay: panel of 60 human tumor cell lines, growth inhibition (CNS Cancer); conditions: Homo sapiens; for GI50: SF-268; for CC50: SF-268, read-out: LC50; for IC (TGI): SF-268, read-out: TGI
[4] = test system: SF-295; assay: as above; conditions: Homo sapiens; for GI50: SF-295; for CC50: SF-295, read-out: LC50; for IC (TGI): SF-295, read-out: TGI
[5] = test system: SNB-75; assay: as above; conditions: Homo sapiens; for GI50: SNB-75; for CC50: SNB-75, read-out: LC50; for IC (TGI): SNB-75, read-out: TGI
[6] = test system: HCT-116; assay: panel of 60 human tumor cell lines, growth inhibition (Colon Cancer); conditions: Homo sapiens; for GI50: HCT-116, HCT-116, NCI five dose; for CC50: HCT-116, read-out: LC50; for IC (TGI): HCT-116, read-out: TGI
[7] = test system: HCT-15; assay: as above; conditions: Homo sapiens; for GI50: HCT-15; for CC50: HCT-15, read-out: LC50; for IC (TGI): HCT-15, read-out: TGI
[8] = test system: HT29; assay: as above; conditions: for Percent Growth: HT29; for GI50 / CC50 / IC (TGI): Homo sapiens; for GI50: HT-29; for CC50: HT-29, read-out: LC50; for IC (TGI): HT-29, read-out: TGI
[9] = test system: SW-620; assay: as above; conditions: Homo sapiens; for GI50: SW-620, SW-620, NCI five dose; for CC50: SW-620, read-out: LC50; for IC (TGI): SW-620, read-out: TGI
[10] = test system: TK-10; assay: panel of 60 human tumor cell lines, growth inhibition (Renal Cancer); conditions: Homo sapiens; for GI50: TK-10, TK-10, NCI five dose; for CC50: TK-10, read-out: LC50; for IC (TGI): TK-10, read-out: TGI
[11] = test system: HS 578T; assay: panel of 60 human tumor cell lines, growth inhibition (Breast Cancer); conditions: Homo sapiens, Hs-578T; for CC50: read-out: LC50; for IC (TGI): read-out: TGI
[12] = test system: BT-549; assay: as above; conditions: Homo sapiens; for GI50: BT-549; for CC50: BT-549, read-out: LC50; for IC (TGI): BT-549, read-out: TGI
[13] = test system: T-47D; assay: as above; conditions: Homo sapiens, T47D; for CC50: read-out: LC50; for IC (TGI): read-out: TGI
[14] = test system: OVCAR-3; assay: panel of 60 human tumor cell lines, growth inhibition (Ovarian Cancer); conditions: for GI50 / CC50 / IC (TGI): Homo sapiens; for GI50 / Percent Growth: OVCAR-3; for CC50: OVCAR-3, read-out: LC50; for IC (TGI): OVCAR-3, read-out: TGI
[15] = test system: OVCAR-5; assay: as above; conditions: Homo sapiens; for GI50: OVCAR-5; for CC50: OVCAR-5, read-out: LC50; for IC (TGI): OVCAR-5, read-out: TGI
[16] = test system: A549/ATCC; assay: panel of 60 human tumor cell lines, growth inhibition (Non-Small Cell Lung Cancer); conditions: Homo sapiens; for GI50: A549; for CC50: A549, read-out: LC50; for IC (TGI): A549, read-out: TGI
[17] = test system: NCI-H322M; assay: as above; conditions: Homo sapiens; for CC50: read-out: LC50; for IC (TGI): read-out: TGI
[18] = test system: NCI-H522; assay: as above; conditions: Homo sapiens; for GI50: NCI-H522; for CC50: NCI-H522, read-out: LC50; for IC (TGI): NCI-H522, read-out: TGI

For `C=C1C(=O)O[C@H]2[C@H]1CC/C(COC(=O)OC)=C\CC[C@@]1(C)O[C@@H]21` [JVM 2-40], the GI50 [1] was 4.12 µM, the CC50 [1] was greater than 100 µM and the “Percent Growth” value ([1]; Log10 Concentration −4.0) was −31%. For the same compound, the “Percent Growth” value ([1]; Log10 Concentration −5.0) was 21%, the “Percent Growth” value ([1]; Log10 Concentration −6.0) was 97% and the “Percent Growth” value ([1]; Log10 Concentration −7.0) was 99%. For the same compound, the “Percent Growth” value ([1]; Log10 Concentration −8.0) was 101%, the TGI [1] was 2.53E−5 and the GI50 [2] was 4.98 µM. For the same compound, the CC50 [2] was 46.7 µM, the “Percent Growth” value ([2]; Log10 Concentration −4.0) was −92% and the “Percent Growth” value ([2]; Log10 Concentration −5.0) was 36%. The “Percent Growth” value ([2]; Log10 Concentration −6.0) was 82%, the “Percent Growth” value ([2]; Log10 Concentration −7.0) was 84% and the “Percent Growth” value ([2]; Log10 Concentration −8.0) was 90%. It also gave a TGI [2] of 1.90E−5, a GI50 [3] of 7.36 µM and a CC50 [3] of 62.8 µM. It also gave an IC (TGI) [3] of 23.6 µM, a GI50 [4] of 13.2 µM and a CC50 [4] of 59.3 µM. For the same compound, the IC (TGI) [4] was 28 µM, the GI50 [5] was 2.69 µM and the CC50 [5] was 42.5 µM. It also gave an IC (TGI) [5] of 17.9 µM, a GI50 [6] of 2.24 µM and a CC50 [6] of 33.2 µM. It also gave an IC (TGI) [6] of 11 µM, a GI50 [7] of 1.96 µM and a CC50 [7] of 28.9 µM. For the same compound, the IC (TGI) [7] was 6.78 µM, the “Percent Growth” value ([8]; Log10 Concentration −4.0) was −76% and the “Percent Growth” value ([8]; Log10 Concentration −5.0) was 83%. The “Percent Growth” value ([8]; Log10 Concentration −6.0) was 99%, the “Percent Growth” value ([8]; Log10 Concentration −7.0) was 96% and the “Percent Growth” value ([8]; Log10 Concentration −8.0) was 96%. The GI50 [8] was 16.1 µM, the CC50 [8] was 68.6 µM and the IC (TGI) [8] was 33.2 µM. For the same compound, the GI50 [9] was 2.39 µM, the CC50 [9] was 47.4 µM and the IC (TGI) [9] was 11.9 µM. The GI50 [10] was 2.65 µM, the CC50 [10] was 32.9 µM and the IC (TGI) [10] was 10.8 µM. For the same compound, the GI50 [11] was 4.72 µM, the CC50 [11] was greater than 100 µM and the IC (TGI) [11] was 38.9 µM. The GI50 [12] was 5.74 µM, the CC50 [12] was 43.5 µM and the IC (TGI) [12] was 18.7 µM. It also gave a GI50 [13] of 2.7 µM, a CC50 [13] of 61.3 µM and an IC (TGI) [13] of 12.5 µM. For the same compound, the GI50 [14] was 2.63 µM, the CC50 [14] was 30.6 µM and the IC (TGI) [14] was 9.31 µM. The “Percent Growth” value ([14]; Log10 Concentration −4.0) was −100%, the “Percent Growth” value ([14]; Log10 Concentration −5.0) was −3% and the “Percent Growth” value ([14]; Log10 Concentration −6.0) was 88%. The “Percent Growth” value ([14]; Log10 Concentration −7.0) was 100%, the “Percent Growth” value ([14]; Log10 Concentration −8.0) was 99% and the GI50 [15] was 5.31 µM. It also gave a CC50 [15] of 47 µM, an IC (TGI) [15] of 19.5 µM and a GI50 [16] of 13.3 µM. It also gave a CC50 [16] of 61.3 µM, an IC (TGI) [16] of 28.6 µM and a GI50 [17] of 20.9 µM. For the same compound, the CC50 [17] was greater than 100 µM, the IC (TGI) [17] was 81.5 µM and the GI50 [18] was 1.07 µM. It also gave a CC50 [18] of 5.82 µM and an IC (TGI) [18] of 2.5 µM.
With `C=C1C(=O)O[C@H]2[C@H]1CC/C(COC(=O)NCCCCCCO)=C\CC[C@@]1(C)O[C@@H]21` [JVM 2-31] the GI50 [1] was 4.96 µM, the CC50 [1] was greater than 100 µM and the “Percent Growth” value ([1]; Log10 Concentration −4.0) was −33%. The “Percent Growth” value ([1]; Log10 Concentration −5.0) was 28%, the “Percent Growth” value ([1]; Log10 Concentration −6.0) was 101% and the “Percent Growth” value ([1]; Log10 Concentration −7.0) was 113%. The “Percent Growth” value ([1]; Log10 Concentration −8.0) was 102%, the TGI [1] was 2.88E−5 and the GI50 [2] was 8.79 µM. The CC50 [2] was 64.3 µM, the “Percent Growth” value ([2]; Log10 Concentration −4.0) was −73% and the “Percent Growth” value ([2]; Log10 Concentration −5.0) was 47%. For the same compound, the “Percent Growth” value ([2]; Log10 Concentration −6.0) was 95%, the “Percent Growth” value ([2]; Log10 Concentration −7.0) was 104% and the “Percent Growth” value ([2]; Log10 Concentration −8.0) was 102%. The TGI [2] was 2.47E−5, the GI50 [3] was 8.59 µM and the CC50 [3] was 73 µM. It also gave an IC (TGI) [3] of 26 µM, a GI50 [4] of 14.8 µM and a CC50 [4] of 85.8 µM. The IC (TGI) [4] was 35.7 µM, the GI50 [5] was 5.84 µM and the CC50 [5] was 45.6 µM. The IC (TGI) [5] was 20.1 µM, the GI50 [6] was 2.78 µM and the CC50 [6] was 34 µM. For the same compound, the IC (TGI) [6] was 11 µM, the GI50 [7] was 2.56 µM and the CC50 [7] was 49.5 µM. For the same compound, the IC (TGI) [7] was 12.1 µM, the “Percent Growth” value ([8]; Log10 Concentration −4.0) was −61% and the “Percent Growth” value ([8]; Log10 Concentration −5.0) was 93%. The “Percent Growth” value ([8]; Log10 Concentration −6.0) was 102%, the “Percent Growth” value ([8]; Log10 Concentration −7.0) was 104% and the “Percent Growth” value ([8]; Log10 Concentration −8.0) was 101%. The GI50 [8] was 19 µM, the CC50 [8] was 84.8 µM and the IC (TGI) [8] was 40.1 µM. For the same compound, the GI50 [9] was 2.93 µM, the CC50 [9] was 74 µM and the IC (TGI) [9] was 13.3 µM. The GI50 [10] was 2.64 µM, the CC50 [10] was 33.3 µM and the IC (TGI) [10] was 9.68 µM. It also gave a GI50 [11] of 3.92 µM, a CC50 [11] greater than 100 µM and an IC (TGI) [11] of 85.7 µM. It also gave a GI50 [12] of 2.86 µM, a CC50 [12] of 43.4 µM and an IC (TGI) [12] of 17.4 µM. It also gave a GI50 [13] of 2.78 µM, a CC50 [13] of 87.9 µM and an IC (TGI) [13] of 10 µM. It also gave a GI50 [14] of 3.4 µM, a CC50 [14] of 36 µM and an IC (TGI) [14] of 12.1 µM. The “Percent Growth” value ([14]; Log10 Concentration −4.0) was −97%, the “Percent Growth” value ([14]; Log10 Concentration −5.0) was 9% and the “Percent Growth” value ([14]; Log10 Concentration −6.0) was 97%. For the same compound, the “Percent Growth” value ([14]; Log10 Concentration −7.0) was 111%, the “Percent Growth” value ([14]; Log10 Concentration −8.0) was 105% and the GI50 [15] was 13.4 µM. The CC50 [15] was 64.1 µM, the IC (TGI) [15] was 29.3 µM and the GI50 [16] was 17 µM. It also gave a CC50 [16] of 85.2 µM, an IC (TGI) [16] of 38 µM and a GI50 [17] of 32.2 µM. It also gave a CC50 [17] greater than 100 µM, an IC (TGI) [17] of 89 µM and a GI50 [18] of 1.7 µM. It also gave a CC50 [18] of 8.15 µM and an IC (TGI) [18] of 3.72 µM.
